Data reported in patent US11872202B2, “Pleuromutilin cinnamic acid ester compounds with activities against antibiotic-resistant infections” (SHAANXI UNIVERSITY OF SCIENCE AND TECHNOLOGY, priority 2021, dated 2024).
In brackets after ≈: the same amount, converted by molar mass. Like-named read-outs stand apart in the source and are kept apart here.

Assays:
Assay in all cases: MIC, micro-broth dilution method
Type in all cases: cell-based
[1] = tested on: Acinetobacter baumannii ATCC19606
Description: (§1) The minimum inhibitory concentration (MIC) of pleuromutilin cinnamate easters and their starting materials was tested by a micro-broth dilution method, with retamoline, vornimulin and tiamulin as positive controls.
(§2) The experimental strains included Gram-positive bacteria: Methicillin-sensitive Staphylococcus epidermidis ATCC12228, Staphylococcus aureus ATCC29213 and ATCC25923, and Methicillin-resistant Staphylococcus aureus ATCC33591; Gram-negative bacteria: Acinetobacter baumannii ATCC19606 and E. coli Bacillus ATCC25922 (the strains used were from the American type culture collection (ATCC)).

[2] = tested on: Escherichia coli ATCC25922
Description: as §1, §2

[3] = tested on: Methicillin-resistant Staphylococcus aureus ATCC33591
Description: as §1, §2

[4] = tested on: Methicillin-sensitive Staphylococcus epidermidis ATCC12228
Description: as §1, §2

[5] = tested on: Staphylococcus aureus ATCC25923
Description: as §1, §2

[6] = tested on: Staphylococcus aureus ATCC29213
Description: as §1, §2

[7] = Acinetobacter baumannii ATCC19606, 37° C., 20-22 h, read-out: Minimum inhibitory concentration
[8] = Escherichia coli ATCC25922, 37° C., 20-22 h, read-out: Minimum inhibitory concentration
[9] = Methicillin-resistant Staphylococcus aureus ATCC33591, 37° C., 20-22 h, read-out: Minimum inhibitory concentration
[10] = Methicillin-sensitive Staphylococcus epidermidis ATCC12228, 37° C., 20-22 h, read-out: Minimum inhibitory concentration
[11] = Staphylococcus aureus ATCC25923, 37° C., 20-22 h, read-out: Minimum inhibitory concentration
[12] = Staphylococcus aureus ATCC29213, 37° C., 20-22 h, read-out: Minimum inhibitory concentration

| MIC [1, 7] | MIC [2, 8] | MIC [3, 9] | MIC [4, 10] | MIC [5, 11] | MIC [6, 12] | Compound | inhibitory effect compared with the three tested positive controls ([4]; methicillin-sensitive Staphylococcus epidermidis, statement in words from Table 1) | inhibition compared with tiamulin ([1]; Acinetobacter baumannii, statement in words from Table 1) | MIC ([1]; Acinetobacter baumannii, ATCC19606, read-out: Minimum inhibitory concentration) | MIC ([2]; Escherichia coli, ATCC25922, read-out: Minimum inhibitory concentration) | MIC ([3]; Staphylococcus aureus, ATCC33591, read-out: Minimum inhibitory concentration) | MIC ([4]; Staphylococcus epidermidis, ATCC12228, read-out: Minimum inhibitory concentration) | MIC ([5]; Staphylococcus aureus, ATCC25923, read-out: Minimum inhibitory concentration) | MIC ([6]; Staphylococcus aureus, ATCC29213, read-out: Minimum inhibitory concentration) |
| --- | --- | --- | --- | --- | --- | --- | --- | --- | --- | --- | --- | --- | --- | --- |
| 128 µg/mL (≈ 228 µM) | 64 µg/mL (≈ 114 µM) | 128 µg/mL (≈ 228 µM) | 16 µg/mL (≈ 28.4 µM) | 32 µg/mL (≈ 56.9 µM) | 64 µg/mL (≈ 114 µM) | C=C[C@]1(C)C[C@@H](OC(=O)COC(=O)/C=C/c2ccc(F)c(F)c2F)[C@]2(C)[C@H](C)CC[C@]3(CCC(=O)[C@H]32)[C@@H](C)[C@@H]1O [Compound 12, (E)-2-(((3aR,4R,5R,8S,9R,12R)-8-hydroxy-4,7,9,12-tetramethyl-3-oxo-7-vinyldecahydro-4,9a-propanocyclopenta[8]annulen-5-yl)oxy)-2-oxoethyl 3-(2,3,4-trifluorophenyl)acrylate] | – | – | – | – | – | – | – | – |
| 128 µg/mL (≈ 211 µM) | 64 µg/mL (≈ 106 µM) | 64 µg/mL (≈ 106 µM) | 64 µg/mL (≈ 106 µM) | 16 µg/mL (≈ 26.4 µM) | 32 µg/mL (≈ 52.8 µM) | C=C[C@]1(C)C[C@@H](OC(=O)COC(=O)/C=C/c2cc(Br)ccc2F)[C@]2(C)[C@H](C)CC[C@]3(CCC(=O)[C@H]32)[C@@H](C)[C@@H]1O [Compound 9, (E)-2-(((3aR,4R,5R,8S,9R,12R)-8-hydroxy-4,7,9,12-tetramethyl-3-oxo-7-vinyldecahydro-4,9a-propanocyclopenta[8]annulen-5-yl)oxy)-2-oxoethyl 3-(5-bromo-2-fluorophenyl)acrylate] | – | – | – | – | – | – | – | – |
| > 256 µg/mL | 64 µg/mL (≈ 111 µM) | 128 µg/mL (≈ 222 µM) | 8 µg/mL (≈ 13.9 µM) | 16 µg/mL (≈ 27.7 µM) | 16 µg/mL (≈ 27.7 µM) | C=C[C@]1(C)C[C@@H](OC(=O)COC(=O)/C=C/c2ccc(C(F)(F)F)cc2)[C@]2(C)[C@H](C)CC[C@]3(CCC(=O)[C@H]32)[C@@H](C)[C@@H]1O [Compound 15, (E)-2-(((3aR,4R,5R,8S,9R,12R)-8-hydroxy-4,7,9,12-tetramethyl-3-oxo-7-vinyldecahydro-4,9a-propanocyclopenta[8]annulen-5-yl)oxy)-2-oxoethyl 3-(4-(trifluoromethyl)phenyl)acrylate] | better than that of the positive controls | – | – | – | – | – | – | – |
| 256 µg/mL (≈ 458 µM) | 256 µg/mL (≈ 458 µM) | 128 µg/mL (≈ 229 µM) | 32 µg/mL (≈ 57.3 µM) | 16 µg/mL (≈ 28.6 µM) | 32 µg/mL (≈ 57.3 µM) | C=C[C@]1(C)C[C@@H](OC(=O)COC(=O)/C=C/c2ccc3ccccc3c2)[C@]2(C)[C@H](C)CC[C@]3(CCC(=O)[C@H]32)[C@@H](C)[C@@H]1O [Compound 18, (E)-2-(((3aR,4R,5R,7S,8S,9R,9aS,12R)-8-hydroxy-4,7,9,12-tetramethyl-3-oxo-7-vinyldecahydro-4,9a-propanocyclopenta[8]annulen-5-yl)oxy)-2-oxoethyl 3-(naphthalen-2-yl)acrylate] | – | – | – | – | – | – | – | – |
| > 256 µg/mL | > 256 µg/mL | 64 µg/mL (≈ 122 µM) | 32 µg/mL (≈ 60.8 µM) | 16 µg/mL (≈ 30.4 µM) | 32 µg/mL (≈ 60.8 µM) | C=C[C@]1(C)C[C@@H](OC(=O)COC(=O)/C=C/c2cccc(F)c2)[C@]2(C)[C@H](C)CC[C@]3(CCC(=O)[C@H]32)[C@@H](C)[C@@H]1O [Compound 8, (E)-2-(((3aR,4R,5R,8S,9R,12R)-8-hydroxy-4,7,9,12-tetramethyl-3-oxo-7-vinyldecahydro-4,9a-propanocyclopenta[8]annulen-5-yl)oxy)-2-oxoethyl 3-(3-fluorophenyl)acrylate] | – | – | – | – | – | – | – | – |
| > 256 µg/mL | 64 µg/mL (≈ 113 µM) | 32 µg/mL (≈ 56.3 µM) | 16 µg/mL (≈ 28.1 µM) | 4 µg/mL (≈ 7.03 µM) | 8 µg/mL (≈ 14.1 µM) | C=C[C@]1(C)C[C@@H](OC(=O)COC(=O)/C=C/c2ccc(OC)c(OC)c2)[C@]2(C)[C@H](C)CC[C@]3(CCC(=O)[C@H]32)[C@@H](C)[C@@H]1O [Compound 7, (E)-2-(((3aR,4R,5R,8S,9R,12R)-8-hydroxy-4,7,9,12-tetramethyl-3-oxo-7-vinyldecahydro-4,9a-propanocyclopenta[8]annulen-5-yl)oxy)-2-oxoethyl 3-(3,4-dimethoxyphenyl)acrylate] | – | – | – | – | – | – | – | – |
| 128 µg/mL (≈ 222 µM) | 64 µg/mL (≈ 111 µM) | 256 µg/mL (≈ 444 µM) | 64 µg/mL (≈ 111 µM) | 32 µg/mL (≈ 55.5 µM) | 64 µg/mL (≈ 111 µM) | C=C[C@]1(C)C[C@@H](OC(=O)COC(=O)/C=C/c2cccc(C(F)(F)F)c2)[C@]2(C)[C@H](C)CC[C@]3(CCC(=O)[C@H]32)[C@@H](C)[C@@H]1O [Compound 16, (E)-2-(((3aR,4R,5R,8S,9R,12R)-8-hydroxy-4,7,9,12-tetramethyl-3-oxo-7-vinyldecahydro-4,9a-propanocyclopenta[8]annulen-5-yl)oxy)-2-oxoethyl 3-(3-(trifluoromethyl)phenyl)acrylate] | – | – | – | – | – | – | – | – |
| 64 µg/mL (≈ 104 µM) | > 256 µg/mL | 128 µg/mL (≈ 208 µM) | 32 µg/mL (≈ 52.1 µM) | 16 µg/mL (≈ 26 µM) | 32 µg/mL (≈ 52.1 µM) | C=C[C@]1(C)C[C@@H](OC(=O)COC(=O)/C=C/c2cccc(OCc3ccccc3)c2)[C@]2(C)[C@H](C)CC[C@]3(CCC(=O)[C@H]32)[C@@H](C)[C@@H]1O [Compound 13, (E)-2-(((3aR,4R,5R,8S,9R,12R)-8-hydroxy-4,7,9,12-tetramethyl-3-oxo-7-vinyldecahydro-4,9a-propanocyclopenta[8]annulen-5-yl)oxy)-2-oxoethyl 3-(3-(benzyloxy)phenyl)acrylate] | – | as much as tiamulin | – | – | – | – | – | – |
| > 256 µg/mL | > 256 µg/mL | 128 µg/mL (≈ 222 µM) | 64 µg/mL (≈ 111 µM) | 32 µg/mL (≈ 55.5 µM) | 64 µg/mL (≈ 111 µM) | C=C[C@]1(C)C[C@@H](OC(=O)COC(=O)/C=C/c2ccccc2C(F)(F)F)[C@]2(C)[C@H](C)CC[C@]3(CCC(=O)[C@H]32)[C@@H](C)[C@@H]1O [Compound 21] | – | – | – | – | – | – | – | – |
| > 256 µg/mL | 128 µg/mL (≈ 252 µM) | 32 µg/mL (≈ 62.9 µM) | 16 µg/mL (≈ 31.5 µM) | 4 µg/mL (≈ 7.86 µM) | 16 µg/mL (≈ 31.5 µM) | C=C[C@]1(C)C[C@@H](OC(=O)COC(=O)/C=C/c2ccccc2)[C@]2(C)[C@H](C)CC[C@]3(CCC(=O)[C@H]32)[C@@H](C)[C@@H]1O [Compound 3, 2-(((3aR,4R,5R,8S,9R,12R)-8-hydroxy-4,7,9,12-tetramethyl-3-oxo-7-vinyldecahydro-4,9a-propanocyclopenta[8]annulen-5-yl)oxy)-2-oxoethyl cinnamate] | – | – | – | – | – | – | – | – |
| 128 µg/mL (≈ 217 µM) | 64 µg/mL (≈ 109 µM) | 32 µg/mL (≈ 54.4 µM) | 16 µg/mL (≈ 27.2 µM) | 8 µg/mL (≈ 13.6 µM) | 16 µg/mL (≈ 27.2 µM) | C=C[C@]1(C)C[C@@H](OC(=O)COC(=O)/C=C/c2ccc(Cn3ccnc3)cc2)[C@]2(C)[C@H](C)CC[C@]3(CCC(=O)[C@H]32)[C@@H](C)[C@@H]1O [Compound 17] | – | – | – | – | – | – | – | – |
| > 256 µg/mL | 128 µg/mL (≈ 215 µM) | 64 µg/mL (≈ 108 µM) | 16 µg/mL (≈ 26.9 µM) | 8 µg/mL (≈ 13.5 µM) | 16 µg/mL (≈ 26.9 µM) | C=C[C@]1(C)C[C@@H](OC(=O)COC(=O)/C=C/c2ccc(C(F)(F)F)cc2F)[C@]2(C)[C@H](C)CC[C@]3(CCC(=O)[C@H]32)[C@@H](C)[C@@H]1O [Compound 19, (E)-2-(((3aR,4R,5R,8S,9R,12R)-8-hydroxy-4,7,9,12-tetramethyl-3-oxo-7-vinyldecahydro-4,9a-propanocyclopenta[8]annulen-5-yl)oxy)-2-oxoethyl 3-(2-fluoro-4-(trifluoromethyl)phenyl)acrylate] | – | – | – | – | – | – | – | – |
| – | – | – | – | – | – | C=C[C@]1(C)C[C@@H](OC(=O)CS[C@@H]2C[C@H]3CC[C@@H](C2)N3C)[C@]2(C)[C@H](C)CC[C@]3(CCC(=O)[C@H]32)[C@@H](C)[C@@H]1O [Retapamulin, reference compound] | – | – | 16 µg/mL (≈ 30.9 µM) | 32 µg/mL (≈ 61.8 µM) | 32 µg/mL (≈ 61.8 µM) | 32 µg/mL (≈ 61.8 µM) | 4 µg/mL (≈ 7.73 µM) | 4 µg/mL (≈ 7.73 µM) |
